The values that follow come from patent US6737407B1, “Treatment of obesity” (Metabolic Pharmaceuticals, Ltd., priority 1997, dated 2004).

The subject of experiment [1] is adipose tissues from male Zucker fatty (fa/fa) rats. The experiment can be described thus: In vitro glycerol release during lipolysis in isolated adipose tissue. The note with it: adipose tissues isolated from obese animals. The class given is cell-based, rat. The method, then:
(§1) Adipose tissues were removed from animals and sliced into segments of approximately 200 mg each. Then the tissues were pre-incubated in 25 ml vials containing 2 ml of Krebs-Ringerbicarbonate (KRB) buffer, 4% defatted BSA and 5.5 mM glucose under an atmosphere of carbogen (95%O2/ 5%CO2) at 37° C. for 1 hour. Tissues were then transferred to another vials with fresh medium and the incubation was initiated by adding hGH 177-191 peptide or analogues into the vials. The mixtures were then incubated at 37° C. for 90 minutes. After incubation, the tissues wee removed and aliquots (200 μl) of samples withdrawn from the medium were assayed for the contents of glycerol or free fatty acid (FFA) either by the enzyme assay (glycerol kinase) or calorimetric (copper-dye) spectrometry. The NADH or color produced was then monitored by the absorption at 340 nm and 610 nm, respectively.

Experiment [2] has as its system Human Subcutaneous adipose Tissue. In words: Lipolytic activity in human subcutaneous adipose tissue. The class given is cell-based. The note with it: 0.5 μM peptide. The procedure:
as §1
Tables 6 and 7 show the in vitro antilipogenic and lipolytic activity of hGH 177-191 and two representative analogues (Ref Nos. 9604 and 9605) on human adipose tissue.

The subject of another experiment is acetyl-CoA carboxylase. In words: Acetyl-CoA carboxylase assay in isolated adipocytes and hepatocytes. The class given is cell-based, rat. The method, then:
Acetyl-CoA carboxylase catalyzes the critical step in fatty acid synthesis. The acetyl-CoA carboxylase activities of both isolated adipocytes and hepatocytes in the presence of hGH 177-191 peptide or analogues were measured for the evaluation of the anti-lipogenic effect of the peptides. The acetyl-CoA carboxylase activity was determined by the [C^14]-bicarbonate fixation reaction—the rate of incorporation of acetyl-CoA dependent H[C^14]O3 into [C^14]-malonyl-CoA.
Adipocytes were prepared with the method described in the HSL assay. Hepatocytes were prepared from the livers of male Wistar rats by collagenase digestion. The liver was finely-cut with scissors and transferred to a 250 ml Erlenmeyer flask containing 30 ml of digestion medium. The digestion medium contained microbial collagenase (Type IV) at a concentration of 30 mg/ml in calcium-free Krebs-Ringer phosphate buffer (pH 7.4) and glucose (5 mM). […]
The isolated cells were first preincubated at 37° C. for 30 minutes in a mixture containing 50 mM Tris-HCl buffer (pH 7.5), 10 mM potassium citrate, 10 mM MgCl2, 1 mM dithiothreitol (DTT), and BSA (0.8 mg/ml). […] The [C^14] radioactivity was measured with a liquid scintillation counter. […] Specific activity of the enzyme was expressed as mU/g cell dry weight, where 1 U of acetyl-CoA carboxylase was defined as that amount which catalyzed the carboxylation of 1 μmole acetyl-CoA per minute.

The next experiment concerns Porcine adipose Tissue. In words: Lipolytic activity in porcine adipose tissue. The class given is cell-based, pig. As to conditions: 0.5 μM peptide. The procedure: as §1
Since corresponding sequences of non-human mammals are effectively peptide variants of the human sequence, it is also therefore expected that those corresponding sequences will be effective in other mammals including humans.

The test system of experiment [3] is isolated adipocytes of normal rats. In words: Diacylglycerol (DAG) release from isolated adipocytes. The class given is cell-based, rat. The method, then: FIG. 8 illustrates the in vitro effect of hGH 177-191 on the release of diacylglycerol from isolated adipocytes of normal rats over an incubation period of 40 min. Diacylglycerol was quantitated using radioenzymic assay and the results were expressed as % increase over the basal levels.
Diacylglycerol released from isolated adipose tissue or adipocytes was quantitated using a radioenzymic assay, employing E coli DAG kinase and defined mixed micelle conditions to solubilize DAG and allow its quantitative conversion to [^33p] phosphatidic acid in the presence of [^33p]-γ-ATP.

Where no end group is shown, it is not given here.

Take “LRIVQCRSVEGSCGF (cysteine pairing not given here) [Ref No. 9401]”: the “release of glycerol (in words)” value in experiment [1] is listed as “enhanced”. Moreover, the results for the Glycerol released (in experiment [2]; with Porcine adipose Tissue) were 1000 ± 80 nmol/mg tissue/hour and 1300 ± 160 nmol/mg tissue/hour, respectively. In the experiment with acetyl-CoA carboxylase, the “effect on acetyl CoA carboxylase (in words)” value is reported as “inhibiting”. The “production/release of diacylglycerol (in words)” value in experiment [3] was “activation of the production”.
